# In US8530465B2, “1, 2-disubstituted amido-anthraquinone derivatives, preparation method and application thereof” (National Defense Medical Center, priority 2010, dated 2013):
# Assays:
# [1] = test system: CCRF-CEM; assay: NCI drug screen, CCRF-CEM; format: cell-based, human; settings: CCRF-CEM (Leukemia); 1.00E−5 Molar
# Method: (§1) In brief, cellular protein levels were determined after 48 hours of drug exposure by sulforhodamine B colorimetry. Through the use of a time 0 cell control, the cell growth can be determined for each cell line thus allowing calculations of the 50% growth inhibitory concentration (GI50), the total growth inhibition (TGI), and the 50% lethal concentration (LC50). Comparison to plates not exposed to drug permits determination of concentration and times of exposure conferring 50% net growth inhibition (GI50), TGI, and 50% cell kill (LC50).
# (§2) The screening system in United State National Cancer Institute (NCI) is consisted of 60 kinds of different human cancer cells, which can be used to assay the growth-inhibiting ability or cell toxicity of a compound against various cancer and tumor at a certain concentration.
# [2] = test system: HL-60(TB); assay: NCI drug screen, HL-60(TB); format: cell-based, human; settings: HL-60(TB) (Leukemia); 1.00E−5 Molar
# Method: as §1, §2
# [3] = test system: MOLT-4; assay: NCI drug screen, MOLT-4; format: cell-based, human; settings: MOLT-4 (Leukemia); 1.00E−5 Molar
# Method: as §1, §2
# [4] = test system: K562; assay: NCI drug screen, K562; format: cell-based, human; settings: K562 (Leukemia); 1.00E−5 Molar
# Method: as §1, §2
# [5] = test system: NCI-H226; assay: NCI drug screen, NCI-H226; format: cell-based, human; settings: NCI-H226 (Non-Small Cell Lung Cancer); 1.00E−5 Molar
# Method: as §1, §2
# [6] = test system: NCI-H23; assay: NCI drug screen, NCI-H23; format: cell-based, human; settings: NCI-H23 (Non-Small Cell Lung Cancer); 1.00E−5 Molar
# Method: as §1, §2
# [7] = test system: NCI-H322M; assay: NCI drug screen, NCI-H322M; format: cell-based, human; settings: NCI-H322M (Non-Small Cell Lung Cancer); 1.00E−5 Molar
# Method: as §1, §2
# [8] = test system: NCI-H460; assay: NCI drug screen, NCI-H460; format: cell-based, human; settings: NCI-H460 (Non-Small Cell Lung Cancer); 1.00E−5 Molar
# Method: as §1, §2
# [9] = test system: A549/ATCC; assay: NCI drug screen, A549/ATCC; format: cell-based, human; settings: A549/ATCC (Non-Small Cell Lung Cancer); 1.00E−5 Molar
# Method: as §1, §2
# [10] = test system: COLO 205; assay: NCI drug screen, COLO 205; format: cell-based, human; settings: COLO 205 (Colon Cancer); 1.00E−5 Molar
# Method: as §1, §2
# [11] = test system: HCC-2998; assay: NCI drug screen, HCC-2998; format: cell-based, human; settings: HCC-2998 (Colon Cancer); 1.00E−5 Molar
# Method: as §1, §2
# [12] = test system: HCT-15; assay: NCI drug screen, HCT-15; format: cell-based, human; settings: HCT-15 (Colon Cancer); 1.00E−5 Molar
# Method: as §1, §2
# [13] = test system: HT29; assay: NCI drug screen, HT29; format: cell-based, human; settings: HT29 (Colon Cancer); 1.00E−5 Molar
# Method: as §1, §2
# [14] = test system: KM12; assay: NCI drug screen, KM12; format: cell-based, human; settings: KM12 (Colon Cancer); 1.00E−5 Molar
# Method: as §1, §2
# [15] = test system: SW-620; assay: NCI drug screen, SW-620; format: cell-based, human; settings: SW-620 (Colon Cancer); 1.00E−5 Molar
# Method: as §1, §2
# [16] = test system: U251; assay: NCI drug screen, U251; format: cell-based, human; settings: U251 (CNS Cancer); 1.00E−5 Molar
# Method: as §1, §2
# [17] = test system: LOX IMVI; assay: NCI drug screen, LOX IMVI; format: cell-based, human; settings: LOX IMVI (Melanoma); 1.00E−5 Molar
# Method: as §1, §2
# [18] = test system: MDA-MB-435; assay: NCI drug screen, MDA-MB-435; format: cell-based, human; settings: MDA-MB-435 (Melanoma); 1.00E−5 Molar
# Method: as §1, §2
# [19] = test system: OVCAR-3; assay: NCI drug screen, OVCAR-3; format: cell-based, human; settings: OVCAR-3 (Ovarian Cancer); 1.00E−5 Molar
# Method: as §1, §2
# [20] = test system: OVCAR-4; assay: NCI drug screen, OVCAR-4; format: cell-based, human; settings: OVCAR-4 (Ovarian Cancer); 1.00E−5 Molar
# Method: as §1, §2
# [21] = test system: OVCAR-5; assay: NCI drug screen, OVCAR-5; format: cell-based, human; settings: OVCAR-5 (Ovarian Cancer); 1.00E−5 Molar
# Method: as §1, §2
# [22] = test system: NCI/ADR-RES; assay: NCI drug screen, NCI/ADR-RES; format: cell-based, human; settings: for Growth Percent: NCI/ADR-RES (Ovarian Cancer), 1.00E−5 Molar
# Method: as §1, §2
# [23] = test system: 786-0; assay: NCI drug screen, 786-0; format: cell-based, human; settings: 786-0 (Renal Cancer); 1.00E−5 Molar
# Method: as §1, §2
# [24] = NCI drug screen, A489; format: cell-based, human; settings: A489 (Renal Cancer); 1.00E−5 Molar
# Method: as §1, §2
# [25] = test system: SN12C; assay: NCI drug screen, SN12C; format: cell-based, human; settings: SN12C (Renal Cancer); 1.00E−5 Molar
# Method: as §1, §2
# [26] = test system: TK-10; assay: NCI drug screen, TK-10; format: cell-based, human; settings: TK-10 (Renal Cancer); 1.00E−5 Molar
# Method: as §1, §2
# [27] = test system: UO-31; assay: NCI drug screen, UO-31; format: cell-based, human; settings: UO-31 (Renal Cancer); 1.00E−5 Molar
# Method: as §1, §2
# [28] = test system: RXF 393; assay: NCI drug screen, RXF 393; format: cell-based, human; settings: RXF 393 (Renal Cancer); 1.00E−5 Molar
# Method: as §1, §2
# [29] = test system: PC-3; assay: NCI drug screen, PC-3; format: cell-based, human; settings: PC-3 (Prostate Cancer); 1.00E−5 Molar
# Method: as §1, §2
# [30] = test system: MDA-MB-231/ATCC; assay: NCI drug screen, MDA-MB-231/ATCC; format: cell-based, human; settings: MDA-MB-231/ATCC (Breast Cancer); 1.00E−5 Molar
# Method: as §1, §2
# [31] = test system: MDA-MB-468; assay: NCI drug screen, MDA-MB-468; format: cell-based, human; settings: MDA-MB-468 (Breast Cancer); 1.00E−5 Molar
# Method: as §1, §2
# [32] = test system: 60 kinds of different human cancer cells; assay: NCI in vitro 60-cell Drug Screen, whole panel; format: cell-based; settings: for Growth Percent, Mean: mean over tested cell lines
# Method: as §1
# From the data analysis it follows that approximately 95% of the actives (potent anticancer drugs) from the 60 cell line screen can be identified. By these criteria, five compounds (each with its certification number, refer to FIG. 4) of the invention were reported that having anticancer activity.
# as §2
SMILES,Growth Percent [1] [%],Growth Percent [2] [%],Growth Percent [3] [%],Growth Percent [4] [%],Growth Percent [5] [%],Growth Percent [6] [%],Growth Percent [7] [%],Growth Percent [8] [%],Growth Percent [9] [%],Growth Percent [10] [%],Growth Percent [11] [%],Growth Percent [12] [%],Growth Percent [13] [%],Growth Percent [14] [%],Growth Percent [15] [%],Growth Percent [16] [%],Growth Percent [17] [%],Growth Percent [18] [%],Growth Percent [19] [%],Growth Percent [20] [%],other results
"Cc1ccc(C(=O)Nc2c(NC(=O)CN3CCCC3)ccc3c2C(=O)c2ccccc2C3=O)cc1 [CC-38, 1-(4-methylbenzamido)-2-[2-(tetrahydro-1H-1-pyrrolyl)acetylamino]-anthra quinone]",39.61,96.11,48.20,40.86,90.22,73.29,82.50,61.05,84.88,65.60,84.60,73.22,31.34,51.05,82.29,82.17,80.62,79.14,77.82,47.06,"Growth Percent [21]: 102.31%; Growth Percent [22]: 50.86%; Growth Percent [23]: 65.15%; Growth Percent [24]: 68.12%; Growth Percent [25]: 74.82%; Growth Percent [26]: 86.85%; Growth Percent [27]: 69.24%; Growth Percent [28]: 63.80%; Growth Percent [29]: 75.00%; Growth Percent [30]: 73.34%; Growth Percent [31]: 69.27%; Growth Percent, Mean ([32]; 1.00E−5 Molar): 74.53%"
"Cc1ccc(C(=O)Nc2c(NC(=O)CN3CCN(C)CC3)ccc3c2C(=O)c2ccccc2C3=O)cc1 [CC-43, 1-(4-methylbenzamido)-2-[2-(4-methylpiperazino)acetylamino]-anthraquinone]",61.06,−8.54,26.04,−4.52,93.87,89.52,72.60,37.47,83.89,2.29,28.97,27.47,3.69,44.05,39.17,22.38,1.24,11.15,−6.15,57.11,"Growth Percent [21]: 106.66%; Growth Percent [22]: 66.74%; drug-resistance against adriamycin (ADR) ([22]; human multiple drug-resistant cell NCI/ADR-RES): possessed drug-resistance against adriamycin (ADR); Growth Percent [23]: 11.90%; Growth Percent [24]: 67.36%; Growth Percent [25]: 63.31%; Growth Percent [26]: 101.93%; Growth Percent [27]: 70.66%; Growth Percent [28]: 68.84%; Growth Percent [29]: 84.75%; Growth Percent [30]: 37.00%; Growth Percent [31]: 7.43%; GI50 ([32]; Homo sapiens, 60 cell, NCI screen, FIG. 6, cell line not stated, read-out: 50% net growth inhibition (GI50)): 130 nM; growth-inhibiting effect against cancer cells, by cancer type ([32]; NCI's screen, 1.00E−5 Molar): could inhibit the cancer cell growth of leukemia, melanoma, and ovarian cancer; Growth Percent, Mean ([32]; 1.00E−5 Molar): 46.71%"
